The target in the first assay is recombinant human EGFR exon 19 deletion/C797S double mutant protein (Homo sapiens (Human), UniProt P00533, C797S/DEL746-750). In words: Biological Activity Assay C: biochemical assay against EGFR exon 19 deletion/C797S protein (EGFR d19/CS).
recombinant human EGFR exon 19 deletion/C797S double mutant protein, sequence (P00533 other isoform, or with tags, fused parts or gaps C797S/del 1-668/del 746-750 limits assumed): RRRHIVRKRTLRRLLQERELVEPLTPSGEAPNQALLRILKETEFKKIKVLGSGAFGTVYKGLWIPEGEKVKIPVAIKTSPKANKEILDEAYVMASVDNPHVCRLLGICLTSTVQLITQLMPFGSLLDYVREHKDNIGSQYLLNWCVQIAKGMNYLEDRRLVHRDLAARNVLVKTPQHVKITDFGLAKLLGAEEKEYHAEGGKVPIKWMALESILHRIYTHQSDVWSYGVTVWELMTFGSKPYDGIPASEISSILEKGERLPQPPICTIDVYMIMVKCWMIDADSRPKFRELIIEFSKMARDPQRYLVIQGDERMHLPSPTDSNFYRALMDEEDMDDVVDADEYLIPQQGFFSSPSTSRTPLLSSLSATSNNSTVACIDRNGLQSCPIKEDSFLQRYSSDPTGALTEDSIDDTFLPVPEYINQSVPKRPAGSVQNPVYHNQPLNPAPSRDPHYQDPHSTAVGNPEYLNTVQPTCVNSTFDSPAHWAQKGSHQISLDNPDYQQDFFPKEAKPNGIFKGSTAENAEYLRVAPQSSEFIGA
Conditions: not given
As to the method:
In Row A of a 384-well polypropylene plate, was added 48 μL of DMSO. In wells A1 and A24, were added 12 μL of DMSO. […] To a well in Row A were added 12 μL of each 10 mM test compound stock (100% DMSO). […] The final intermediate dilution plate contained 4×16-point compound serial dilutions in assay buffer. The DMSO concentration was 10%. The intermediate compound dilution plate was transferred to the Bravo and the “5 uL dispense into ARP.pro” protocol was run. To the black low volume assay ready plates, were added 5 μL of 40 uM Phosphosens peptide sensor/4 mM ATP working solution to each well. […] To column 24, was added 10 μL of assay buffer. The final DMSO concentration was 2.5%. […] The plates were sealed with the TopSeal-A Plus plate seals. […] Set for 90 cycles with 120 second interval. […] The slope of each curve was constructed using Dotmatics in each well, and each IC50s was calculated using a 4-parameter fit model.
Take `CC(=O)N1CC[C@@H](n2cc(-c3ncnc4oc(-c5ccccc5)cc34)c(-c3ccc(F)cc3)n2)C1` (single isomer, unassigned) [Example 128]: the IC50 turned out to be 0.00041 µM.
Same read-out and setting: as for `CC(=O)N1CC[C@H](n2cc(-c3ncnc4oc(-c5ccccc5)cc34)c(-c3ccc(F)cc3)n2)C1` (single isomer, unassigned) [Example 129], the figure is 0.0002 µM; as for `Fc1ccc(-c2nn([C@@H]3CCCOC3)cc2-c2ncnc3oc(-c4ccccc4)cc23)cc1` (single isomer, unassigned) [Example 136], 0.00097 µM; as for `Fc1ccc(-c2nn([C@H]3CCCOC3)cc2-c2ncnc3oc(-c4ccccc4)cc23)cc1` (single isomer, unassigned) [Example 137], 0.00069 µM.
On to `Fc1ccc(-c2nn([C@H]3CCOC[C@@H]3F)cc2-c2ncnc3oc(-c4ccccc4)cc23)cc1` (single isomer, unassigned) [Example 152], for which the IC50 came to 0.00133 µM.
As to `Fc1ccc(-c2nn([C@@H]3CCOC[C@H]3F)cc2-c2ncnc3oc(-c4ccccc4)cc23)cc1` (single isomer, unassigned) [Example 153], the IC50 amounted to 0.00104 µM.
On to `CN1CC[C@@H](n2cc(-c3ncnc4oc(-c5ccccc5)cc34)c(-c3ccc(F)cc3)n2)C1=O` (single isomer, unassigned) [Example 166], for which the IC50 was 0.00029 µM.
Turning to `CN1CC[C@H](n2cc(-c3ncnc4oc(-c5ccccc5)cc34)c(-c3ccc(F)cc3)n2)C1=O` (single isomer, unassigned) [Example 167], the IC50 worked out at 0.00083 µM.
Turning to `CS(=O)(=O)[C@@H]1CC[C@H](n2cc(-c3ncnc4oc(-c5ccccc5)cc34)c(-c3ccc(F)cc3)n2)C1` (single isomer, unassigned) [Example 192], the IC50 is 0.00097 µM.
Consider `CS(=O)(=O)[C@H]1CC[C@@H](n2cc(-c3ncnc4oc(-c5ccccc5)cc34)c(-c3ccc(F)cc3)n2)C1` (single isomer, unassigned) [Example 193], for which the IC50 was 0.00164 µM.

For the next assay, the system named is Ba/F3_EGFR WT cells. Description: Biological Activity Assay D: BaF3 cell proliferation assay, EGFR wild-type (BaF3 WT). The settings on record: Ba/F3 EGFR; Ba/F3_EGFR WT cells, ~72 hours, CellTiter-Glo; read-out: BaF3 WT IC50. Format: cell-based. As to the method:
(§1) One frozen vial of cells should be thawed into one T25 flask in 10 mL media. Keep the flask upright in the incubator.
(§2) Method: One frozen vial of cells was thawed into one T25 flask in 10 mL media and the flask was kept upright in the incubator. Cells were split 1:10 every two to three days when cells reached confluency of around 1×10^6 cells/mL. Bravo protocol files were used with Greiner 384-well plates for all steps of compound preparation, cell plating and compound addition. […] 16 μL of DMSO were added (for compounds starting at 20 μM) or 28 μL DMSO (for compounds starting at 5 μM) to 96-well V-bottom polypropylene plate: wells 1A-1H (8 compounds/plate). […] 20 μL DMSO were added to the remainder of the wells (columns 2-12) in the 96-well V-bottom plate. A Bravo liquid handler was used to make 1:3 serial dilutions from columns 1 to 11 (12 remains as DMSO only) to prepare the DMSO dilution plate. 144 μL media were added to each well of a new 96-well V-bottom polypropylene plate to prepare the intermediate dilution plate. A Bravo or 96-head Integra liquid handler was used to add and mix 6 μL of test compound from the DMSO dilution plate to the intermediate dilution plate. (1:25 dilution). Cells were transferred from a flask into a 50 mL conical, vortex gently and the number of cells were counted, with a target cell number of about 1×10^6 cells per mL. The cells were diluted in culture medium in 50 mL conical or T25 flask, and the cell suspension was added to BRAVO reservoir and then use Bravo protocol to plate the appropriate number of cells shown below in 36 μl of medium per well as follows: Ba/F3-WT-EGFR 2000 cells per well of a 384 well plate; Ba/F3-LR/CS-EGFR 2000 cells per well of a 384 well plate; and Ba/F3-d19/CS-EGFR 1500 cells per well of a 384 well plate. An extra 10 mL of dead volume was utilized in each reservoir.
(§3) Using a Bravo liquid handler, 4 μl of test compound solution was added per well from the intermediate dilution plate to plated cells (1:10 dilution from the intermediate plate, final compound dilution 1:250 and final DMSO concentration per well is 0.4%). Using the 96 BRAVO Head, 25 μl were aspirated from the intermediate dilution plate and 4 μl each were dispensed into 4 wells (square pattern) in the 384-well plate. Any remaining test compound is dispensed into a secondary plate to prevent cross contamination of cells in the intermediate compound plate. After the compounds were added, the plate was shaken at 600 rpm gently for 60 see, and the plates were incubated in a tissue culture incubator, 37° C., 5% CO2, for ˜ 72 hours. After incubation, CTG 2.0 reagent was allowed to equilibrate to room temperature (˜3 hours) and cells to reach room temperature (˜10-15 minutes) and reagent was added to cells (40 μL/well) using a Bravo liquid handler. The plates were shaken to allow proper mixing (˜5 min) and let settle for 10 minutes and were read on Tecan plate reader using the appropriate luminescence method. Data from plate reader was transferred to an excel file and entered directly into Dotmatics using the protocols under EGFR Project/Cell Proliferation/named: “BaF3_EGFRwt_CP”, “BaF3_EGFR_d19/CS_CP”, “BaF3_EGFR_LR/CS_CP”. Curves were fit with a 4-parameter model and IC50s calculated by the Dotmatics software. DMSO wells were averaged to define the high control (100% growth). The average of the highest concentration of the positive control compound (afatinib) was used to define the 0% growth and used to lock the bottom of the curves. The tops of the curves were not fixed.
In general terms: In ATP-based viability assays light output follows the ATP content of the culture.
Regarding `CC(=O)N1CC[C@@H](n2cc(-c3ncnc4oc(-c5ccccc5)cc34)c(-c3ccc(F)cc3)n2)C1` (single isomer, unassigned) [Example 128], the IC50 was determined as 1.74 µM.
For `CC(=O)N1CC[C@H](n2cc(-c3ncnc4oc(-c5ccccc5)cc34)c(-c3ccc(F)cc3)n2)C1` (single isomer, unassigned) [Example 129], the IC50 came out at 1.61 µM.
With `Fc1ccc(-c2nn([C@@H]3CCCOC3)cc2-c2ncnc3oc(-c4ccccc4)cc23)cc1` (single isomer, unassigned) [Example 136], the IC50 was 3.05 µM.
For the compound `Fc1ccc(-c2nn([C@H]3CCCOC3)cc2-c2ncnc3oc(-c4ccccc4)cc23)cc1` (single isomer, unassigned) [Example 137], the IC50 came out at 2.5 µM.
As for `Fc1ccc(-c2nn([C@H]3CCOC[C@@H]3F)cc2-c2ncnc3oc(-c4ccccc4)cc23)cc1` (single isomer, unassigned) [Example 152], the IC50 turned out to be 2.02 µM.
In the case of `Fc1ccc(-c2nn([C@@H]3CCOC[C@H]3F)cc2-c2ncnc3oc(-c4ccccc4)cc23)cc1` (single isomer, unassigned) [Example 153], the IC50 was 1.8 µM.
On to `CN1CC[C@@H](n2cc(-c3ncnc4oc(-c5ccccc5)cc34)c(-c3ccc(F)cc3)n2)C1=O` (single isomer, unassigned) [Example 166], for which the IC50 was 1.35 µM.
`CN1CC[C@H](n2cc(-c3ncnc4oc(-c5ccccc5)cc34)c(-c3ccc(F)cc3)n2)C1=O` (single isomer, unassigned) [Example 167]: the IC50 worked out at 1.64 µM.
On to `CS(=O)(=O)[C@@H]1CC[C@H](n2cc(-c3ncnc4oc(-c5ccccc5)cc34)c(-c3ccc(F)cc3)n2)C1` (single isomer, unassigned) [Example 192], for which the IC50 stood at 3.07 µM.
On to `CS(=O)(=O)[C@H]1CC[C@@H](n2cc(-c3ncnc4oc(-c5ccccc5)cc34)c(-c3ccc(F)cc3)n2)C1` (single isomer, unassigned) [Example 193], for which the IC50 amounted to 3.04 µM.

The next assay relates to BaF3_EGFR LR/CS cells. Description: Biological Activity Assay D: BaF3 cell proliferation assay, EGFR L858R/C797S mutant (BaF3 LR/CS). Format: cell-based. The settings on record: Ba/F3 EGFR; BaF3_EGFR LR/CS cells, ~72 hours, CellTiter-Glo; read-out: BaF3 LR/CS IC50. The protocol: as §1, §2, §3
Regarding `CC(=O)N1CC[C@@H](n2cc(-c3ncnc4oc(-c5ccccc5)cc34)c(-c3ccc(F)cc3)n2)C1` (single isomer, unassigned) [Example 128], the IC50 came to 0.105 µM.
Turning to `CC(=O)N1CC[C@H](n2cc(-c3ncnc4oc(-c5ccccc5)cc34)c(-c3ccc(F)cc3)n2)C1` (single isomer, unassigned) [Example 129], the IC50 is 0.0666 µM.
For `Fc1ccc(-c2nn([C@@H]3CCCOC3)cc2-c2ncnc3oc(-c4ccccc4)cc23)cc1` (single isomer, unassigned) [Example 136], the IC50 was found to be 0.0815 µM.
With `Fc1ccc(-c2nn([C@H]3CCCOC3)cc2-c2ncnc3oc(-c4ccccc4)cc23)cc1` (single isomer, unassigned) [Example 137], the IC50 is 0.0405 µM.
On to `Fc1ccc(-c2nn([C@H]3CCOC[C@@H]3F)cc2-c2ncnc3oc(-c4ccccc4)cc23)cc1` (single isomer, unassigned) [Example 152], for which the IC50 was found to be 0.0225 µM.
In the case of `Fc1ccc(-c2nn([C@@H]3CCOC[C@H]3F)cc2-c2ncnc3oc(-c4ccccc4)cc23)cc1` (single isomer, unassigned) [Example 153], the IC50 is 0.0223 µM.
In the case of `CN1CC[C@@H](n2cc(-c3ncnc4oc(-c5ccccc5)cc34)c(-c3ccc(F)cc3)n2)C1=O` (single isomer, unassigned) [Example 166], the IC50 is 0.0196 µM.
Turning to `CN1CC[C@H](n2cc(-c3ncnc4oc(-c5ccccc5)cc34)c(-c3ccc(F)cc3)n2)C1=O` (single isomer, unassigned) [Example 167], the IC50 was 0.0328 µM.
Turning to `CS(=O)(=O)[C@@H]1CC[C@H](n2cc(-c3ncnc4oc(-c5ccccc5)cc34)c(-c3ccc(F)cc3)n2)C1` (single isomer, unassigned) [Example 192], the IC50 came out at 0.196 µM.
As for `CS(=O)(=O)[C@H]1CC[C@@H](n2cc(-c3ncnc4oc(-c5ccccc5)cc34)c(-c3ccc(F)cc3)n2)C1` (single isomer, unassigned) [Example 193], the IC50 was 0.174 µM.

In another assay the test system is BaF3_EGFR d19/CS cells. Description: Biological Activity Assay D: BaF3 cell proliferation assay, EGFR exon 19 deletion/C797S (BaF3 d19/CS). Format: cell-based. Particulars: Ba/F3 EGFR; BaF3_EGFR d19/CS cells, ~72 hours, CellTiter-Glo; read-out: BaF3 d19/CS IC50. The protocol: as §1, §2, §3
With `CC(=O)N1CC[C@@H](n2cc(-c3ncnc4oc(-c5ccccc5)cc34)c(-c3ccc(F)cc3)n2)C1` (single isomer, unassigned) [Example 128], the IC50 is 0.125 µM.
On to `CC(=O)N1CC[C@H](n2cc(-c3ncnc4oc(-c5ccccc5)cc34)c(-c3ccc(F)cc3)n2)C1` (single isomer, unassigned) [Example 129], for which the IC50 amounted to 0.107 µM.
Regarding `Fc1ccc(-c2nn([C@@H]3CCCOC3)cc2-c2ncnc3oc(-c4ccccc4)cc23)cc1` (single isomer, unassigned) [Example 136], the IC50 came out at 0.127 µM.
For the compound `Fc1ccc(-c2nn([C@H]3CCCOC3)cc2-c2ncnc3oc(-c4ccccc4)cc23)cc1` (single isomer, unassigned) [Example 137], the IC50 was determined as 0.0713 µM.
Turning to `Fc1ccc(-c2nn([C@H]3CCOC[C@@H]3F)cc2-c2ncnc3oc(-c4ccccc4)cc23)cc1` (single isomer, unassigned) [Example 152], the IC50 is 0.0889 µM.
The same measure, in the same setting: then `Fc1ccc(-c2nn([C@@H]3CCOC[C@H]3F)cc2-c2ncnc3oc(-c4ccccc4)cc23)cc1` (single isomer, unassigned) [Example 153], with 0.0604 µM; and `CN1CC[C@@H](n2cc(-c3ncnc4oc(-c5ccccc5)cc34)c(-c3ccc(F)cc3)n2)C1=O` (single isomer, unassigned) [Example 166], with 0.0538 µM.
Same read-out and setting: as for `CN1CC[C@H](n2cc(-c3ncnc4oc(-c5ccccc5)cc34)c(-c3ccc(F)cc3)n2)C1=O` (single isomer, unassigned) [Example 167], the figure is 0.162 µM.
As to `CS(=O)(=O)[C@@H]1CC[C@H](n2cc(-c3ncnc4oc(-c5ccccc5)cc34)c(-c3ccc(F)cc3)n2)C1` (single isomer, unassigned) [Example 192], the IC50 turned out to be 0.26 µM.
For `CS(=O)(=O)[C@H]1CC[C@@H](n2cc(-c3ncnc4oc(-c5ccccc5)cc34)c(-c3ccc(F)cc3)n2)C1` (single isomer, unassigned) [Example 193], the IC50 came to 0.259 µM.

These data come from patent publication US20250034159A1, “INHIBITORS OF EPIDERMAL GROWTH FACTOR RECEPTOR” (ORIC Pharmaceuticals, Inc., priority 2021, published 2025).
